Data set [1] concerns IL-1β release upon NLRP3 activation in peripheral blood mononuclear cells (PBMC). The experiment in a line: PBMC IC50 Determination Assay. In kind it is cell-based. The settings on record: Homo sapiens; LPS-primed PBMC stimulated with ATP (5 mM) or nigericin (10 μM); IL-1β by ELISA (Protocol A) or HTRF (Protocol B); salts tested. How it is done: PBMC IC50 Determination Assay. The compounds of the present disclosure were tested for their inhibitory activity against IL-1β release upon NLRP3 activation in peripheral blood mononuclear cells (PBMC).
Protocol A. PBMC were isolated from buffy coats by density gradient centrifugation on Histopaque-1077 (Sigma, cat no. 10771). Isolated cells were seeded into the wells of a 96-well plate and incubated for 3 h with lipopolysaccharide (LPS). Following medium exchange, the compounds of the present disclosure were added (a single compound per well) and the cells were incubated for 30 min. Next, the cells were stimulated either with ATP (5 mM) or nigericin (10 μM) for 1 h and the cell culture media from the wells were collected for further analysis. The release of IL1-β into the media was determined by a quantitative detection of IL-1β in the media using an IL-1β enzyme-linked immunosorbent assay (ELISA) Ready-SET-Go!, eBioscience cat. No. 88-7261-88. Briefly, in a first step, high affinity binding plates (Corning, Costar 9018 or NUNC Maxisorp Cat No. 44-2404) were coated overnight at 4° C. with specific capture antibody included in the kit (anti-human IL-1β ref. 14-7018-68). Subsequently, plates were blocked with blocking buffer for 1 h at room temperature (rt) and after washing with a buffer (PBS with 0.05% Tween-20) incubated with protein standard and culture media. After 2 h of incubation at rt, plates were washed and incubated with biotinylated detection antibody included in the kit (anti-human IL-1β Biotin ref. 33-7110-68) for 1 h at rt. Plates were washed and incubated with HRP-streptavidin for 30 min at rt and washed again. The signal was developed after addition of 3,3′,5,5′-tetramethylbenzidine-peroxidase (TMB) until colour appeared and the reaction was stopped by 2 M H2SO4. A microplate spectrophotometer (BioTek) was used to detect signals with 450 nm. The detection range of IL-1β 3 ELISA was 2-150 ng/mL.
Protocol B. PBMC were isolated from buffy coats by density gradient centrifugation on Histopaque-1077 (Sigma, cat no. 10771). Isolated cells were seeded into the wells (280,000 cells/well) of a 96-well plate and incubated for 3 h with lipopolysaccharide (LPS, 1 μg/mL diluted 1000× from a 1 mg/mL stock solution). The compounds of the present disclosure were added (a single compound per well) and the cells were incubated for 30 min. Next, the cells were stimulated with ATP (5 mM final concentration diluted 20× from a 100 mM stock solution) for 1 h and the cell culture media from the wells were collected for further analysis. The release of IL-1β into the media was determined by quantitative detection of IL-1 in the media using HTRF®, CisBio cat. No. 62HIL1BPEH. Briefly, cell culture supernatant were dispensed directly into the assay plate containing antibodies labelled with the HTRF® donor and acceptor. A microplate spectrophotometer (BMG) was used to detect signals at 655 nm and 620 nm. The detection range of IL-1β HTRF® was […].
For orientation: In an ELISA, binding on a coated surface is turned into a signal by an enzyme label.

The target of another data set is T1, P-glycoprotein (P-gp) (Homo sapiens, UniProt P08183).
T1 construct: expressed in transfected cells; host or cells: MDCK-MDR1 cells
Description: P-gp MDCK-MDR1 permeability assay. It counts as in vitro ADME. The settings on record: efflux ratio, MDCK-MDR1 cells. How it is done: P-gp MDCK-MDR1 Studies. The compounds of the present disclosure were tested in a MDCK-MDR1 permeability assay to assess whether they are actively transported out of cells by the efflux protein, P-glycoprotein (P-gp).
Protocol. MDCK-MDR1 cells were used between passage numbers 6-30. Cells were seeded onto Millipore Multiscreen Transwell plates at 3.4×10^5 cells/cm^2. The cells were cultured in DMEM and media was changed on Day 3. On Day 4 the P-gp inhibition study was performed. Cell culture and assay incubations were carried out at 37° C. in an atmosphere of 5% CO2 with a relative humidity of 95%. On the day of the assay, the monolayers were prepared by rinsing both apical and basolateral surfaces twice with warmed (37° C.) transport buffer (Hanks Balanced Salt Solution [HBSS] containing 25 mM HEPES and 4.45 mM glucose, pH 7.4). Cells were then incubated with transport buffer containing test compound or positive control inhibitor (elacridar) in both apical and basolateral compartments for 30 minutes at 37° C. The dosing solutions were prepared by diluting digoxin and test compound where applicable to give a final digoxin concentration of 5 μM (final DMSO concentration of 1% v/v). The fluorescent integrity marker lucifer yellow was prepared in receiver solutions in vehicle or test compound-containing transport buffer. After pre-incubation, the transport buffer was removed from both apical and basolateral compartments and replaced with the appropriate dosing or receiver solution.
For assessment of B-A permeability, transport buffer was removed from the basolateral companion plate and replaced with dosing solution. Fresh transport buffer containing lucifer yellow and test compound where applicable (final DMSO concentration 1% v/v) was added to the apical compartment insert, which was then placed into the companion plate. After a 90-minute incubation the apical compartment inserts and the companion plates were separated and compartments sampled for analysis. Seven concentrations of test compound (up to 100 μM) were assessed in addition to a vehicle control (0 μM). A triplicate determination of each concentration was performed. The positive control inhibitor was evaluated in parallel. [^3H]-digoxin was quantified by liquid scintillation counting to give disintegrations per minute (dpm). The integrity of the monolayer throughout the experiment was checked by monitoring lucifer yellow permeation using fluorimetric analysis.
The efflux ratio (ER) values of compounds of the present disclosure are shown in Table B below (“****” means <3; “***” 3≥ and <10; “**” means ≥10 and <30; “*” means ≥30).

Another data set can be described thus: PAMPA permeability assay. The settings on record: 10 μM donor, PBS, 4 hours at room temperature, lecithin/dodecane membrane. It counts as in vitro ADME. On the procedure:
PAMPA Studies. The compounds of the present disclosure were tested in a PAMPA permeability assay to assess passive transcellular permeation.
Protocol. 0.2 mM working solution was prepared by diluting 10 mM stock solution with DMSO. 10 μM donor solution (5% DMSO) was prepared by diluting 20 μL of working solution with 380 μL PBS. 150 μL of 10 μM donor solutions to each well of the donor plate, whose PVDF membrane was precoated with 5 μL of 1% lecithin/dodecane mixture. Duplicates were prepared. 300 μL of PBS was added to each well of the PTFE acceptor plate. The donor plate and acceptor plate were combined and incubated for 4 hours at room temperature with shaking at 300 rpm. Preparation of TO sample: 20 μL donor solution was transferred to new well followed by the addition of 250 μL PBS (DF: 13.5), 130 μL ACN (containing internal standard) as TO sample. Preparation of acceptor sample: The plate was removed from incubator. 270 μL solution was transferred from each acceptor well and mixed with 130 μL ACN (containing internal standard) as acceptor sample. Preparation of donor sample: 20 μL solution was transferred from each donor well and mixed with 250 μL PBS (DF: 13.5), 130 μL ACN (containing internal standard) as donor sample. Acceptor samples and donor samples were all analysed by LC-MS/MS.
The measured PAMPA permeability values of compounds of the present disclosure are shown in Table B below (“$$$$” means >10 nm/“$$$” means ≥3 and <10 nm/s; “$$” means ≥1 and <3 nm/s; “$” means <1 nm/s).
A general note: In PAMPA a lipid-coated filter parts donor from acceptor wells.

The nature of data set [2]: Thermodynamic (equilibrium) solubility assay. In kind it is physicochemical. The note with it: aqueous buffer, thermodynamic from solid; 50 mM pH 7.4 phosphate buffer, 24 hours at room temperature. How it is done: Thermodynamic Solubility Studies. The compounds of the present disclosure were tested in an equilibrium solubility assay.
An appropriate amount of test and control compounds were weighed into lower chambers of Whatman Mini-UniPrep vials. To these were added 50 mM pH 7.4 phosphate buffer (450 μL) to get a super-saturated suspension. The samples were vortexed for at least 2 minutes. The Whatman Mini-UniPrep vials were shaken on a shaker for 24 hours at room temperature at 800 rpm. The vials were centrifuged for 20 minutes (eg. 4000 rpm). Samples were compressed to prepare filtrates for injection into HPLC system and the concentration calculated with a standard curve. […] As shown in the table, compounds of the present disclosure may display improved properties (e.g., over the compounds in the prior art), such as enhanced potency, solubility, membrane permeability and transporter efflux.

T1 sequence (P08183 whole entry): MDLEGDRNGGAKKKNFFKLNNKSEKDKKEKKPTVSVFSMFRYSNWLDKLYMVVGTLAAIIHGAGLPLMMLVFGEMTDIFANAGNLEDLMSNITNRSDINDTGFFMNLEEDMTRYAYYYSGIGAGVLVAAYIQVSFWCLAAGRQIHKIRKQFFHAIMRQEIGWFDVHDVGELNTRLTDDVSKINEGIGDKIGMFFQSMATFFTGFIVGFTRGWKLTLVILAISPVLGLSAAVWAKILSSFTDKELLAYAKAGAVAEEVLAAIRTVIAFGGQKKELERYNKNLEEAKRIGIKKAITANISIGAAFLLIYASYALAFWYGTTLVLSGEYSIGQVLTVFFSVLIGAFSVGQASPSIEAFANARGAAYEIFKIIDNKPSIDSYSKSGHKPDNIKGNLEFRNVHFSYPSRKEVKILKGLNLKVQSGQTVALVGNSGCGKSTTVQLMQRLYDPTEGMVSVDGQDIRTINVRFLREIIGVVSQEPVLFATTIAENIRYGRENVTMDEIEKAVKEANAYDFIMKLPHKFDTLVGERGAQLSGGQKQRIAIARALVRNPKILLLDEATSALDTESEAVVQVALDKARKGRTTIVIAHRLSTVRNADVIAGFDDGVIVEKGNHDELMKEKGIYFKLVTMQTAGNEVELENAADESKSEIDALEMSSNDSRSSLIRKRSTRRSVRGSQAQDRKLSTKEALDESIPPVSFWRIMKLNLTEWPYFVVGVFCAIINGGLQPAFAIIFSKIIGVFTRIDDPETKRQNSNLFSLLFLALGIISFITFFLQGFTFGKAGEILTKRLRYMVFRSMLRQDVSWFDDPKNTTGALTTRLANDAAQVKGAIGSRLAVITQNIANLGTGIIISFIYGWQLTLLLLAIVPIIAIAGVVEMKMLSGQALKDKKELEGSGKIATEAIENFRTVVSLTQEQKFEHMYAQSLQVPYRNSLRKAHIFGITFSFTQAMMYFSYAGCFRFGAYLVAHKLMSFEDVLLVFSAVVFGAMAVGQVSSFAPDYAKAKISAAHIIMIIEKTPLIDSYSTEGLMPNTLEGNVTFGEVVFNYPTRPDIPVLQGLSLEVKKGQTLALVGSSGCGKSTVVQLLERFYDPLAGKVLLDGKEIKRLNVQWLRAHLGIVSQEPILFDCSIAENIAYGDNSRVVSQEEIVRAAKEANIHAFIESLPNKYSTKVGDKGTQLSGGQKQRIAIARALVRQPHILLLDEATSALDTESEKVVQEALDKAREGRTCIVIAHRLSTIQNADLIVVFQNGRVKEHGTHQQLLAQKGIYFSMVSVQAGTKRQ

What is called IC50 is the midpoint of a concentration-inhibition curve. With `Cn1cc(N(C[C@H]2CCCO2)S(=O)(=O)NC(=O)Nc2c3c(cc4c2CC4)CC3)cn1` [Compound 3B, Sodium [(1-methyl-1H-pyrazol-4-yl)({[(2R)-oxolan-2-yl]methyl})sulfamoyl]-({tricyclo[6.2.0.0^3,6]deca-1,3(6),7-trien-2-yl}carbamoyl)azanide], the half-inhibitory concentration (IC50) in data set [1] is less than 100 nM. Further, on P-glycoprotein (P-gp), the “MDCK-MDR1 ER” value was “* (“*” means ≥30)”.

A word on the thermodynamic solubility: it is the concentration in solution at equilibrium with solid. For `Cn1cc(N(CC2CCCCO2)S(=O)(=O)NC(=O)Nc2c3c(cc4c2CC4)CC3)cn1` (stereo in doubt) [Compound 7B, Sodium [(1-methyl-1H-pyrazol-4-yl)({[(2R)-oxan-2-yl]methyl})sulfamoyl]-({tricyclo[6.2.0.0^3,6]deca-1,3(6),7-trien-2-yl}carbamoyl)azanide)], the half-maximal inhibitory concentration (IC50) in data set [1] is less than 100 nM. In addition, the “PAMPA Pe” value in “PAMPA permeability assay” was “$$$ (“$$$” means ≥3 and <10 nm/s)”. Further, the thermodynamic solubility at 24 h in data set [2] lay within 3000 to 10000 µg/mL. Besides, the “MDCK-MDR1 ER” value at P-glycoprotein (P-gp) was “* (“*” means ≥30)”.

Consider `Cn1cc(N(C[C@@H]2CCCO2)S(=O)(=O)NC(=O)Nc2c3c(cc4c2CC4)CC3)cn1` [Compound 3A, Sodium [(1-methyl-1H-pyrazol-4-yl)({[(2S)-oxolan-2-yl]methyl})sulfamoyl]-({tricyclo[6.2.0.0^3,6]deca-1,3(6),7-trien-2-yl}carbamoyl)azanide], for which the IC50 in data set [1] was less than 100 nM. The “MDCK-MDR1 ER” value at P-glycoprotein (P-gp) is recorded as “* (“*” means ≥30)”.

Turning to `Cn1cc(N(CC2CCCCO2)S(=O)(=O)NC(=O)Nc2c3c(cc4c2CC4)CC3)cn1` (stereo in doubt) [Compound 7A, Sodium [(1-methyl-1H-pyrazol-4-yl)({[(2S)-oxan-2-yl]methyl})sulfamoyl]-({tricyclo[6.2.0.0^3,6]deca-1,3(6),7-trien-2-yl}carbamoyl)azanide], in data set [1], the concentration for half-maximal inhibition (IC50) is less than 100 nM. In addition, the “PAMPA Pe” value in the data set “PAMPA permeability assay” was “$$$ (“$$$” means ≥3 and <10 nm/s)”. Further, the solubility (thermodynamic) at 24 h in data set [2] was in the range of 3000 to 10000 µg/mL. Moreover, the “MDCK-MDR1 ER” value on P-glycoprotein (P-gp) is “** (“**” means ≥10 and <30)”.

(Values after patent US20240043410A1, “SULPHAMOYL UREA DERIVATIVES CONTAINING ALKYL-OXACYCLOALKYL MOIETY AND USES THEREOF” (NodThera Limited, priority 2020, published 2024).)
